# Patent US9733262B2, “Method for measuring blood coagulation” (SEKISUI MEDICAL CO., LTD., priority 2009, dated 2017)
# Where a name gives a salt, the structure may show the parent alone.
# Tested on: commercially available normal plasma (Coagtrol N)
# Experiment: Fibrinogen measurement by thrombin time method: coagulation time and change in scattered light intensity of normal plasma after adding thrombin reagent
# Type: biochemical
# Conditions: for coagulation time versus addition amount (FIG. 3): agent added to HEPES buffer (pH 7.5) specimen diluent, buffer alone 4.6 seconds
# Method: When a fibrinogen concentration in a plasma specimen is measured by a thrombin time method, in general, thrombin is added to plasma to measure a coagulation time, and the concentration is determined from a standard curve prepared using standard solutions having known fibrinogen concentrations. In the procedure, 90 μL of a specimen diluent are added to and mixed with 10 μL of specimen plasma, subsequently 50 μL of a thrombin-containing reagent are added as a blood coagulation activator-containing reagent, and a coagulation time is measured.
# In this example, commercially available normal plasma (Coagtrol N, manufactured by Sysmex Corporation) as the plasma specimen, a Coagpia Fbg thrombin reagent (manufactured by Sekisui Medical Co., Ltd.) as the thrombin-containing reagent, and a full-automated blood coagulation time analyzer Coagrex 800 (manufactured by Sysmex Corporation) as a coagulation time measurement apparatus were used. This apparatus employs a scattered light detection method, and change data of scattered light intensity with time can also be obtained along with the coagulation time.
# When an HEPES buffer (pH 7.5) was used as the specimen diluent, the commercially available normal plasma coagulated in several seconds (4.6 seconds).
# Commercially available normal plasma was measured in the same manner as in Example 1 using the specimen diluent (HEPES buffer, pH 7.5) in which the amount of the blood coagulation time prolonging agent added was adjusted so as to obtain the similar coagulation time. The comparative results of the maximum of a change ΔH in scattered light intensity and of the simultaneous reproducibility of the measurements between in the conventional method and in the present invention were shown in Table 1.
# A specimen diluent containing sodium chloride as the blood coagulation time prolonging agent was defined as a conventional method A and a specimen diluent further containing polyethylene glycol (molecular weight: 20000) (hereinafter, referred to as PEG 20000) as an enhancer of a change in light intensity in the conventional method A was defined as a conventional method B, and the specimen diluents were compared with a specimen diluent employing aminoguanidine hydrochloride (present invention) which served as both of the blood coagulation time prolonging agent and the enhancer of a change in light intensity. It should be noted that an HEPES buffer (pH 7.5) was used as a buffer in all of the cases. Further, the concentration of PEG 20000 to be added in the conventional method B was set to 0.1%, because a large amount of PEG 20000 could increase the viscosity of diluent and reduce the accuracy of sampling. The coagulation time of commercially available normal plasma was measured in the same manner as in Example 1 using each specimen diluent. The change of the scattered light intensity in the conventional method B with the addition of PEG 20000 became larger than in the conventional method A without the addition.
# [1] = Table 1, agent in specimen diluent (HEPES buffer pH 7.5): NaCl 145 mM, NaBr 110, KBr 105, KCl 135, LiCl 135, guanidine HCl 90, guanidine phosphate 30, guanidine sulfamate 55, aminoguanidine HCl 90, arginine HCl 55, arginine methyl ester 17 mM, single measurement for conventional methods (2)-(5), ten times for the others
# [2] = Table 2, specimen diluent HEPES buffer pH 7.5, NaCl 150 mM (A), NaCl 150 mM + PEG 20000 0.1% (B), aminoguanidine hydrochloride 90 mM, mean of three times measurement
SMILES,Coagulation time [1] [s],Coagulation time [2] [s],coagulation time versus addition amount (FIG. 3)
N=C(N)N.NS(=O)(=O)O [Guanidine sulfamate],11.2,–,–
[Br-].[K+] [Potassium bromide],11.4,–,–
N=C(N)N.O=P(O)(O)O [Guanidine phosphate],10.4,–,–
[Cl-].[Li+] [Lithium chloride],10.8,–,–
Cl.N=C(N)NCCC[C@H](N)C(=O)O [Arginine hydrochloride],10.3,–,–
N=C(N)NN [Aminoguanidine hydrochloride],9.7,10.4,prolonged in an addition concentration-dependent manner
[Cl-].[K+] [Potassium chloride],10.8,–,–
COC(=O)[C@@H](N)CCCNC(=N)N [Arginine methyl ester],11,–,–
N=C(N)N [Guanidine hydrochloride],10.3,–,–
[Cl-].[Na+] [Sodium chloride],10.7,11.6,prolonged in an addition concentration-dependent manner
[Br-].[Na+] [Sodium bromide],11.3,–,prolonged in an addition concentration-dependent manner
